The species named for experiment [1] is Rattus norvegicus. The experiment can be described thus: Compound was tested for in vitro activity of luteolysis on corpora lutea from pseudopregnant rats; inactive. The format is functional.
The species entered for experiment [2] is Rattus norvegicus. The experiment can be described thus: Compound was tested for in vitro activity of luteolysis on corpora lutea from pseudopregnant rats. It counts as functional. Conditions: read-out: ED50 (the source's name).

Molecules are shown by their SMILES. Active and inactive are the calls of the source. No cut-off for these calls is given here.

With `Cc1cccc2nc(-c3ccccc3)nn12`, the ED50 entry in the experiment listed under Rattus norvegicus [1] was “inactive”.
For the compound `Cc1cccc2nc(-c3ccc4c(c3)OCO4)nn12`, in the experiment filed under Rattus norvegicus [2], the EC50 amounted to 65 µM.
